Experimental data from publication PMC11542593, “Vascular endothelial growth factor receptor 2 as a potential host target for the inhibition of enterovirus replication” (Journal of Virology, 2024).

Tests used:
[1] = test system: IL-6, IL-8, TNF-α mRNA expression; experiment: EV-A71-induced pro-inflammatory cytokine mRNA expression in Huh7 and THP-1 cells; assay type: cell-based; conditions: 10 µM, Huh7 (MOI 2) and THP-1 (MOI 5) cells, 12 hpi
EV-A71 [2] = experiment: Virus attachment/entry assay in RD cells; assay type: cell-based, Human enterovirus A71; conditions: 10 µM, MOI 5
Description: After 2 hpi, the infectious inoculum was removed, and cell lysates were collected. The intracellular viral RNA load was then determined using RT-qPCR analysis. […] The cell lysates were then collected to detect the intracellular viral gene copy by RT-qPCR analysis.
Fig. S5. […] (A) EV-A71 inactivation assay. […] (B) EV-A71 attachment assay. […] After 2 hpi, the infectious inoculum was removed and cells were washed again. The intracellular viral RNA load was then determined using RT-qPCR analysis. (C) EV-A71 entry assay.

CVB1 = experiment: Antiviral activity against CVB1 in BGMK cells (RT-qPCR, TCID50); assay type: cell-based, coxsackievirus B1; conditions: 10 µM, 0.1 MOI, 24 h
Description: (§1) Detection of cellular mRNA expression and viral load was performed as described previously ([24]). In brief, the infected or mock-infected cells were lysed and applied to total RNA extraction by using the MiniBEST Universal RNA Extraction Kit (TaKaRa, Code No.9767). Viral RNA in the supernatant was extracted with the MiniBEST Viral RNA Extraction Kit (TaKaRa, Code No.9766). Reverse transcription was performed using the PrimeScript RT reagent Kit (TaKaRa, Code No.PR037A) with an oligo (dT) primer. The resultant cDNAs were used for qPCR assay with the Light Cycler 480 SYBR Green I Master Mix (Roche) to measure the mRNA expression level of cellular genes or viral load in supernatants. The relative viral gene copy was determined by RT-qPCR, using GAPDH as an internal reference.
(§2) The viral titer in the indicated samples was determined by TCID50 assay as described previously ([25]). Briefly, serially diluted samples from 10^−1 to 10^−8 in DMEM were inoculated to RD cells, BGMK cells, or MRC-5 in 96‐well plates. The cells were then incubated for 2 to 3 days at 37°C. TCID50 was calculated by counting the wells with cytopathic effect in infected cells using the Reed–Muench method.
(§3) The viral gene copy in the cell lysate is normalized with the transcript of GAPDH and presented. Viral titers were also detected by TCID50 assay. […] All experiments were independently repeated thrice.

EV-A71 [3] = experiment: Cytopathic effect (CPE) inhibition assay in RD cells; assay type: cell-based, Human enterovirus A71; conditions: Enterovirus A, EVA71, RD, read-out: EC50, compound concentration required to achieve 50% protection from virus-induced cytopathogenicity
EV-D70 = experiment: Antiviral activity against EV-D70 in RD cells (RT-qPCR, TCID50); assay type: cell-based, enterovirus D70; conditions: 10 µM, 0.1 MOI, 24 h
Description: as §1, §2, §3

VEGFR2 = test system: VEGFR2; design: method as in PMID 17620431; conditions: cited from earlier work
EV-A71 [4] = experiment: Time-of-drug addition assay in RD cells; assay type: cell-based, Human enterovirus A71; conditions: MOI 1, read at 12 hpi
Description: RD cells were seeded into 24-well plates or eight-well chamber slides (Millicell) 1 day before infection with EV-A71 at an MOI of 1. After adsorption for 2 h, the cells were washed with PBS once to remove the unbound virus and maintained in DMEM supplemented with 2% FBS. […] At 12 hpi, the virus from the culture supernatant were collected, and the relative viral gene copy was detected by RT-qPCR. Meanwhile, the virus titer was assessed using TCID50 assay as described before. To analyze VP1 expression, the cells in the eight-well chamber slides were fixed and then monitored using immunofluorescence staining.
(A) Graphical scheme illustrating the experimental design. (B) RT-qPCR measured the amount of viral RNA released into culture supernatant. (C) Viral titer was determined in TCID50 assays. […] Nuclei are counterstained with DAPI (blue). Scale bar, 50 µm.

Akt phosphorylation = experiment: Western blot of phosphorylated Akt and total Akt in RD cells; assay type: cell-based
Description: Western blot analysis was performed as described previously ([26]). In brief, the indicated cell samples were lysed in RIPA buffer supplemented with protease inhibitors (Thermo Fisher Scientific, 78430). The cell lysates were then separated in 10% SDS-PAGE and transferred to a 0.45-µm nitrocellulose membrane. After blocking, the membrane was incubated with an against VP1 antibody (GeneTex, GTX132339), VEGFR1 antibody (Abcam, ab32152), VEGFR2 antibody (Abcam, ab134191), phosphorylated VEGFR2 antibody (Tyr951) (CST 4991), VEGFR3 antibody (Beyotime, AF6918), Akt antibody (CST 4685), phosphorylated Akt antibody (CST 4060), or GAPDH antibody (GeneTex, GTX627408) diluted 1:5,000 in primary antibody dilution buffer overnight at 4°C, followed by corresponding secondary staining. The blots were visualized by western horseradish peroxidase substrate and imaged with Gel Doc XR+.
Fig. S8. Viral reduction in RD cells with Akt inhibitor treatment. […] Significant inhibition of EV-A71 infection was found for both cell lysate (left) and supernatant (middle) using RT-qPCR analysis. The results represent the viral load in the cells treated with MK-2206 relative to that in DMSO-treated cells. Viral titer was also determined for inhibitor-treated samples in TCID50 assays (right). […] (C) The levels of VP1, phosphorylated Akt and total Akt protein were measured for samples treated with DMSO or MK-2206 using western blotting.
Fig. S9. […] (A) RD cells were infected with EV-A71 at an MOI of 1, and cell lysates were collected at the indicated times. Western blotting assays were then performed to assess the levels of phosphorylated Akt and total Akt. (B)The plasmids pVEGFR2 or pEmpty vector were transfected into RD cells. At the indicated times post-transfection, cells were harvested to detect the expression levels of phosphorylated Akt and total Akt by western blotting. […] Western blotting assays were then performed to assess the levels of phosphorylated Akt and total Akt. […] At 1 hpi, cells were harvested to detect the expression levels of phosphorylated Akt and total Akt by western blotting. […]

HRV-A = experiment: Antiviral activity against HRV-A in MRC-5 cells (RT-qPCR, TCID50); assay type: cell-based, human rhinovirus A; conditions: 10 µM, 0.1 MOI, 24 h
Description: as §1, §2, §3

VEGFR1 = test system: VEGFR1; design: method as in PMID 17620431; conditions: cited from earlier work

With `Cc1ccc(Nc2nccc(N(C)c3ccc4c(C)n(C)nc4c3)n2)cc1S(N)(=O)=O` [Pazopanib] the “EV-A71-induced pro-inflammatory cytokine activation” value [1] was “significantly suppressed”, the “effect on viral attachment/entry (EV-A71 mRNA levels in cell lysates)” value (EV-A71 [2]) was “did not affect the viral attachment/entry stage” and the “decrease in viral load and viral titer” value (CVB1) was “over 2 logs”. For the same molecule, the EC50 (EV-A71 [3]) was 890 ± 20 nM, the “decrease in viral load and viral titer” value (EV-D70) was “over 2 logs” and the IC50 (VEGFR2) was […]. For the same molecule, the “inhibitory effect, late treatment” value (EV-A71 [4]; 10 µM added at 6 to 10 hpi) was “no significant inhibitory effect”, the “viral load and viral titer of progeny virions in culture medium, early treatment” value (EV-A71 [4]; 10 µM added at −2 h, 0 h, 2 h, 4 h) was “significantly reduced” and the “Akt phosphorylation in mock-infected cells” value (Akt phosphorylation; 10 µM pretreatment) was “significantly attenuated Akt phosphorylation”. For the same molecule, the “EV-A71-stimulated Akt phosphorylation” value (Akt phosphorylation; 10 µM, MOI 1, 1 hpi) was “inhibited”, the “HRV-A replication (viral loads in cell lysate and supernatant)” value (HRV-A) was “slight but significant inhibition” and the IC50 (VEGFR1) was 10 nM.
